Laboratory results published in patent publication US8158851B2, “Transgenic high tryptophan plants” (Monsanto Technology LLC, priority 2002, dated 2012).
Read-outs that look alike come from different tables or passages of the source.

Key:
Type in all cases: biochemical
Settings in all cases: 25° C.
[1] = biological target: T1, Agrobacterium tumefaciens anthranilate synthase (AgroAS), wild type, SEQ ID NO: 4 (Agrobacterium fabrum, UniProt A9CI26); test: Anthranilate synthase assay, anthranilate formation by absorbance at 320 nm
T1 construct: no tag mentioned
Protocol: (§1) Agrobacterium tumefaciens AS wild type and mutant enzymes were expressed in E. coli as described in Example 1. The purification of all the Agrobacterium tumefaciens AS enzymes, including wild type and mutants thereof, was performed at 4° C. The cells (approximate wet weight of 1 g) were suspended in 20 ml of purification buffer (50 mM potassium phosphate, pH 7.3, 10 mM MgCl2, 10 mM 2-mercaptoethanol, 10% glycerol) and lysed by ultrasonication (Branson sonifier Cell Disruptor, W185). Supernatant was collected after centrifugation of the homogenate at 20,000×g for 15 min. The supernatant was subjected to ammonium sulfate fractionation (30 to 65% saturation). The precipitate was collected after centrifugation at 20,000×g for 15 min and dissolved in 3 ml of the purification buffer and then loaded as a whole on an Econo-Pac 10DG desalting column, pre-equilibrated with the same buffer. Fractions containing the enzyme were detected by the developed assay and pooled. The pooled enzyme (4.3 mls) was loaded on a 10 ml DEAF Sephacel (Pharmacia Biotech) column (1.5×7.5 cm) equilibrated with the same buffer. The column was washed with 30 ml of the purification buffer and the enzyme was eluted with 30 ml of 50 mM NaCl in the same buffer. Fractions containing high AS activity were pooled and precipitated by 65% ammonium sulfate saturation and isolated and desalted as above. Fractions containing the enzyme were pooled and stored at −80° C.
The standard assay for Agrobacterium tumefaciens AS was performed at 25° C. in an assay buffer containing 100 mM potassium phosphate, pH 7.0, 10 mM MgCl2, 1 mM dithiothreitol, 200 μM chorismate and 10 mM L-glutamine. The reaction was started by adding 30 μl of enzyme to the reaction mixture and mixing. The formation of anthranilate was directly monitored by the absorbance increase at 320 m for 3 minutes. Initial rate of reaction was calculated as unit absorbance increase per second based on the slope of the absorbance change over the reaction time. Km for chorismate (Km^Cho) was determined in the total volume of 1 ml assay buffer containing 100 mM potassium phosphate, pH 7.0, 10 mM MgCl2, 1 mM dithiothreitol with 10 mM L-glutamine and varying the concentration of chorismate between 2.5-100 μM chorismate. The Km for glutamine (Km^Gln) was determined in the total volume of 1 ml assay buffer containing 100 mM potassium phosphate, pH 7.0, 10 mM MgCl2, 1 mM dithiothreitol with 200 μM chorismate and varying the concentration of L-glutamine between 0.1-2 mM L-glutamine. […] Kinetic parameters and IC50 of AS were calculated after fitting the data to a non-linear regression program (GraFit).

[2] = biological target: T2, Agrobacterium tumefaciens anthranilate synthase P293A mutant, SEQ ID NO: 63 (Agrobacterium fabrum, UniProt A9CI26, P293A); test: Anthranilate synthase assay, P293A mutant
T2 construct: no tag mentioned
Excerpt: (§2) Site directed mutagenesis was used to generate ten single amino acid substitutions six sites. The mutations were introduced into the Agrobacterium tumefaciens AS in pMON34705 using the QuikChange™ Site-Directed Mutagenesis Kit (Stratagene). The primers used for site directed mutagenesis were SEQ ID NOs: 9-42 (FIG. 7; F=forward, R=reverse). Each primer sequence is specific for alteration of the nucleic acid at a specific location in the sequence and thus changing the encoded codon to code for a new amino acid. For example, S51C designates a change from serine to cysteine at amino acid position 51 in the Agrobacterium tumefaciens AS peptide sequence.
(§3) Following mutagenesis the sequence of the entire gene was reconfirmed and the variants expressed and purified from E. coli as described below for the wild type enzyme. The resultant plasmids comprising mutant Agrobacterium tumefaciens AS are suitably cloned into a plasmid for overproduction of protein using the T7 expression system as described in Example 1.
as §1, with “The column was washed with 30 ml of the purification buffer and the enzyme was eluted with 30 ml of 50 mM NaCl in the same buffer. Fractions containing high AS activity were pooled and precipitated by 65% ammonium sulfate saturation and isolated and desalted as above. Fractions containing the enzyme were pooled and stored at −80° C.” left out
(§4) The standard assay for Agrobacterium tumefaciens AS was performed at 25° C. in an assay buffer containing 100 mM potassium phosphate, pH 7.0, 10 mM MgCl2, 1 mM dithiothreitol, 200 μM chorismate and 10 mM L-glutamine. […] The formation of anthranilate was directly monitored by the absorbance increase at 320 m for 3 minutes. Initial rate of reaction was calculated as unit absorbance increase per second based on the slope of the absorbance change over the reaction time. […] Kinetic parameters and IC50 of AS were calculated after fitting the data to a non-linear regression program (GraFit).

[3] = biological target: T3, Agrobacterium tumefaciens anthranilate synthase V48Y mutant, SEQ ID NO: 59 (Agrobacterium fabrum, UniProt A9CI26, V48Y); test: Anthranilate synthase assay, V48Y mutant
T3 construct: no tag mentioned
Excerpt: as §2, §3
as §1, with “The column was washed with 30 ml of the purification buffer and the enzyme was eluted with 30 ml of 50 mM NaCl in the same buffer. Fractions containing high AS activity were pooled and precipitated by 65% ammonium sulfate saturation and isolated and desalted as above. Fractions containing the enzyme were pooled and stored at −80° C.” left out
as §4

[4] = biological target: T4, Agrobacterium tumefaciens anthranilate synthase S51F mutant, SEQ ID NO: 60 (Agrobacterium fabrum, UniProt A9CI26, S51F); test: Anthranilate synthase assay, S51F mutant
T4 construct: no tag mentioned
Excerpt: as §2, §3
as §1, with “The column was washed with 30 ml of the purification buffer and the enzyme was eluted with 30 ml of 50 mM NaCl in the same buffer. Fractions containing high AS activity were pooled and precipitated by 65% ammonium sulfate saturation and isolated and desalted as above. Fractions containing the enzyme were pooled and stored at −80° C.” left out
as §4

[5] = biological target: T5, Agrobacterium tumefaciens anthranilate synthase P293G mutant, SEQ ID NO: 64 (Agrobacterium fabrum, UniProt A9CI26, P293G); test: Anthranilate synthase assay, P293G mutant
T5 construct: no tag mentioned
Excerpt: as §2, §3
as §1, with “The column was washed with 30 ml of the purification buffer and the enzyme was eluted with 30 ml of 50 mM NaCl in the same buffer. Fractions containing high AS activity were pooled and precipitated by 65% ammonium sulfate saturation and isolated and desalted as above. Fractions containing the enzyme were pooled and stored at −80° C.” left out
as §4

[6] = biological target: T6, Agrobacterium tumefaciens anthranilate synthase S50K mutant, SEQ ID NO: 69 (Agrobacterium fabrum, UniProt A9CI26, S50K); test: Anthranilate synthase assay, S50K mutant
T6 construct: no tag mentioned
Excerpt: as §2, §3
as §1, with “The column was washed with 30 ml of the purification buffer and the enzyme was eluted with 30 ml of 50 mM NaCl in the same buffer. Fractions containing high AS activity were pooled and precipitated by 65% ammonium sulfate saturation and isolated and desalted as above. Fractions containing the enzyme were pooled and stored at −80° C.” left out
as §4

[7] = biological target: T7, Agrobacterium tumefaciens anthranilate synthase V48F mutant, SEQ ID NO: 58 (Agrobacterium fabrum, UniProt A9CI26, V48F); test: Anthranilate synthase assay, V48F mutant
T7 construct: no tag mentioned
Excerpt: as §2, §3
as §1, with “The column was washed with 30 ml of the purification buffer and the enzyme was eluted with 30 ml of 50 mM NaCl in the same buffer. Fractions containing high AS activity were pooled and precipitated by 65% ammonium sulfate saturation and isolated and desalted as above. Fractions containing the enzyme were pooled and stored at −80° C.” left out
as §4

[8] = biological target: T8, Agrobacterium tumefaciens anthranilate synthase N52F mutant, SEQ ID NO: 62 (Agrobacterium fabrum, UniProt A9CI26, N52F); test: Anthranilate synthase assay, N52F mutant
T8 construct: no tag mentioned
Excerpt: as §2, §3
as §1, with “The column was washed with 30 ml of the purification buffer and the enzyme was eluted with 30 ml of 50 mM NaCl in the same buffer. Fractions containing high AS activity were pooled and precipitated by 65% ammonium sulfate saturation and isolated and desalted as above. Fractions containing the enzyme were pooled and stored at −80° C.” left out
as §4

[9] = biological target: T9, Agrobacterium tumefaciens anthranilate synthase S51C mutant, SEQ ID NO: 61 (Agrobacterium fabrum, UniProt A9CI26, S51C); test: Anthranilate synthase assay, S51C mutant
T9 construct: no tag mentioned
Excerpt: as §2, §3
as §1, with “The column was washed with 30 ml of the purification buffer and the enzyme was eluted with 30 ml of 50 mM NaCl in the same buffer. Fractions containing high AS activity were pooled and precipitated by 65% ammonium sulfate saturation and isolated and desalted as above. Fractions containing the enzyme were pooled and stored at −80° C.” left out
as §4

[10] = pH 7.0, 10 mM L-glutamine, 2.5-100 μM chorismate, read-out: Km for chorismate (Km^Cho)
[11] = pH 7.0, 200 μM chorismate, 0.1-2 mM L-glutamine, read-out: Km for glutamine (Km^Gln)

SMILES: C=C(O[C@@H]1C=C(C(=O)O)C=C[C@H]1O)C(=O)O [chorismate]
- kcat ([1]; pH 7.0): 0.43 s⁻¹
- kcat/Km^Cho ([1]; pH 7.0): 53700 M⁻¹ s⁻¹
- Km [1, 10]: 8 µM
- kcat ([2]; pH 7.0): 0.35 s⁻¹
- kcat/Km^Cho ([2]; pH 7.0): 14600 M⁻¹ s⁻¹
- Km [2, 10]: 24 µM
- kcat ([3]; pH 7.0): 0.18 s⁻¹
- kcat/Km^Cho ([3]; pH 7.0): 42800 M⁻¹ s⁻¹
- Km [3, 10]: 4.2 µM
- kcat ([4]; pH 7.0): 0.08 s⁻¹
- kcat/Km^Cho ([4]; pH 7.0): 8000 M⁻¹ s⁻¹
- Km [4, 10]: 10 µM
- kcat ([5]; pH 7.0): 0.48 s⁻¹
- kcat/Km^Cho ([5]; pH 7.0): 14500 M⁻¹ s⁻¹
- Km [5, 10]: 33 µM
- kcat ([6]; pH 7.0): 0.13 s⁻¹
- kcat/Km^Cho ([6]; pH 7.0): 10000 M⁻¹ s⁻¹
- Km [6, 10]: 13 µM
- kcat ([7]; pH 7.0): 0.24 s⁻¹
- kcat/Km^Cho ([7]; pH 7.0): 53300 M⁻¹ s⁻¹
- Km [7, 10]: 4.5 µM
- kcat ([8]; pH 7.0): 0.21 s⁻¹
- kcat/Km^Cho ([8]; pH 7.0): 38200 M⁻¹ s⁻¹
- Km [8, 10]: 5.5 µM
- kcat ([9]; pH 7.0): 0.15 s⁻¹
- kcat/Km^Cho ([9]; pH 7.0): 53600 M⁻¹ s⁻¹
- Km [9, 10]: 2.8 µM

SMILES: NC(=O)CC[C@H](N)C(=O)O [glutamine, L-glutamine]
- Km [1, 11]: 110 µM
- Km [2, 11]: 160 µM
- Km [3, 11]: 100 µM
- Km [4, 11]: 60 µM
- Km [5, 11]: 70 µM
- Km [6, 11]: 10 µM
- Km [7, 11]: 80 µM
- Km [8, 11]: 40 µM
- Km [9, 11]: 80 µM
